Laboratory results reported in ChEMBL document CHEMBL3259703, “Synthesis and preliminary biological evaluation of 1,2,3-triazole-Jaspine B hybrids as potential cytotoxic agents” (Eur J Med Chem, 2014).

What was measured:
MCF7 [1] = test: Induction of apoptosis in human MCF7 cells assessed as necrotic cells at 8 uM after 8 hrs using Annexin V/PI double staining by flow cytometry (reference value: 0.6 %); assay type: functional
MCF7 [2] = test: Antiproliferative activity against human MCF7 cells after 48 hrs by MTT assay; assay type: functional, cell-based; conditions: MCF7, 48 h
MCF7 [3] = test: Induction of apoptosis in human MCF7 cells assessed as viable cells at 8 uM after 8 hrs using Annexin V/PI double staining by flow cytometry (reference value: 84.3 %); assay type: functional; conditions: MCF7, 8 h, read-out: Activity
MCF7 [4] = test: Induction of apoptosis in human MCF7 cells assessed as necrotic cells at 4 uM after 8 hrs using Annexin V/PI double staining by flow cytometry (reference value: 0.6 %); assay type: functional
MCF7 [5] = test: Cell cycle arrest in human MCF7 cells assessed as accumulation at G0/G1 phase at 2 uM after 16 hrs using propidium iodide staining by flow cytometry (reference value: 46.01 %); assay type: functional
MCF7 [6] = test: Induction of apoptosis in human MCF7 cells assessed as necrotic cells at 2 uM after 16 hrs using Annexin V/PI double staining by flow cytometry (reference value: 0.7 %); assay type: functional
MCF7 [7] = test: Cell cycle arrest in human MCF7 cells assessed as accumulation at G0/G1 phase at 4 uM after 16 hrs using propidium iodide staining by flow cytometry (reference value: 46.01 %); assay type: functional
[8] = Antiproliferative activity against human EC9706 cells after 48 hrs by MTT assay; assay type: functional, cell-based; conditions: EC9706, 48 h
MCF7 [9] = test: Cell cycle arrest in human MCF7 cells assessed as accumulation at G0/G1 phase at 2 uM after 8 hrs using propidium iodide staining by flow cytometry (reference value: 47.36 %); assay type: functional
MCF7 [10] = test: Cell cycle arrest in human MCF7 cells assessed as accumulation at G2/M phase at 8 uM after 8 hrs using propidium iodide staining by flow cytometry (reference value: 19.35 %); assay type: functional
MCF7 [11] = test: Induction of apoptosis in human MCF7 cells assessed as early apoptotic cells at 2 uM after 16 hrs using Annexin V/PI double staining by flow cytometry (reference value: 11.1 %); assay type: functional
MCF7 [12] = test: Induction of apoptosis in human MCF7 cells assessed as early apoptotic cells at 8 uM after 16 hrs using Annexin V/PI double staining by flow cytometry (reference value: 11.1 %); assay type: functional
MCF7 [13] = test: Induction of apoptosis in human MCF7 cells assessed as viable cells at 4 uM after 8 hrs using Annexin V/PI double staining by flow cytometry (reference value: 84.3 %); assay type: functional; conditions: MCF7, 8 h, read-out: Activity
MCF7 [14] = test: Induction of apoptosis in human MCF7 cells assessed as viable cells at 4 uM after 16 hrs using Annexin V/PI double staining by flow cytometry (reference value: 87.5 %); assay type: functional; conditions: MCF7, 16 h, read-out: Activity
MCF7 [15] = test: Cell cycle arrest in human MCF7 cells assessed as accumulation at G2/M phase at 2 uM after 8 hrs using propidium iodide staining by flow cytometry (reference value: 19.35 %); assay type: functional
MCF7 [16] = test: Cell cycle arrest in human MCF7 cells assessed as accumulation at G2/M phase at 2 uM after 16 hrs using propidium iodide staining by flow cytometry (reference value: 20.08 %); assay type: functional
MCF7 [17] = test: Induction of apoptosis in human MCF7 cells assessed as viable cells at 8 uM after 16 hrs using Annexin V/PI double staining by flow cytometry (reference value: 87.5 %); assay type: functional; conditions: MCF7, 16 h, read-out: Activity
MCF7 [18] = test: Induction of apoptosis in human MCF7 cells assessed as late apoptotic cells at 8 uM after 16 hrs using Annexin V/PI double staining by flow cytometry (reference value: 0.7 %); assay type: functional
MCF7 [19] = test: Cell cycle arrest in human MCF7 cells assessed as accumulation at G0/G1 phase at 8 uM after 16 hrs using propidium iodide staining by flow cytometry (reference value: 46.01 %); assay type: functional
MCF7 [20] = test: Induction of apoptosis in human MCF7 cells assessed as necrotic cells at 4 uM after 16 hrs using Annexin V/PI double staining by flow cytometry (reference value: 0.7 %); assay type: functional
MCF7 [21] = test: Cell cycle arrest in human MCF7 cells assessed as accumulation at G0/G1 phase at 4 uM after 8 hrs using propidium iodide staining by flow cytometry (reference value: 47.36 %); assay type: functional
MCF7 [22] = test: Ratio of IC50 Jaspine B to compound IC50 for human MCF7 cells after 48 hrs by MTT assay; assay type: functional
MCF7 [23] = test: Induction of apoptosis in human MCF7 cells assessed as late apoptotic cells at 8 uM after 8 hrs using Annexin V/PI double staining by flow cytometry (reference value: 6.8 %); assay type: functional
MCF7 [24] = test: Induction of apoptosis in human MCF7 cells assessed as late apoptotic cells at 4 uM after 8 hrs using Annexin V/PI double staining by flow cytometry (reference value: 6.8 %); assay type: functional
MCF7 [25] = test: Cell cycle arrest in human MCF7 cells assessed as accumulation at G0/G1 phase at 8 uM after 8 hrs using propidium iodide staining by flow cytometry (reference value: 47.36 %); assay type: functional
MCF7 [26] = test: Induction of apoptosis in human MCF7 cells assessed as late apoptotic cells at 2 uM after 8 hrs using Annexin V/PI double staining by flow cytometry (reference value: 6.8 %); assay type: functional
MGC-803 [27] = test: Ratio of IC50 Jaspine B to compound IC50 for human MGC803 cells after 48 hrs by MTT assay; assay type: functional
MCF7 [28] = test: Cell cycle arrest in human MCF7 cells assessed as accumulation at G2/M phase at 4 uM after 8 hrs using propidium iodide staining by flow cytometry (reference value: 19.35 %); assay type: functional
MCF7 [29] = test: Induction of apoptosis in human MCF7 cells assessed as early apoptotic cells at 8 uM after 8 hrs using Annexin V/PI double staining by flow cytometry (reference value: 8.2 %); assay type: functional
MCF7 [30] = test: Cell cycle arrest in human MCF7 cells assessed as accumulation at S phase at 2 uM after 16 hrs using propidium iodide staining by flow cytometry (reference value: 30.05 %); assay type: functional
MCF7 [31] = test: Induction of apoptosis in human MCF7 cells assessed as viable cells at 2 uM after 8 hrs using Annexin V/PI double staining by flow cytometry (reference value: 84.3 %); assay type: functional; conditions: MCF7, 8 h, read-out: Activity
MCF7 [32] = test: Induction of apoptosis in human MCF7 cells assessed as early apoptotic cells at 4 uM after 16 hrs using Annexin V/PI double staining by flow cytometry (reference value: 11.1 %); assay type: functional
MCF7 [33] = test: Cell cycle arrest in human MCF7 cells assessed as accumulation at S phase at 4 uM after 16 hrs using propidium iodide staining by flow cytometry (reference value: 30.05 %); assay type: functional
MCF7 [34] = test: Cell cycle arrest in human MCF7 cells assessed as accumulation at S phase at 8 uM after 8 hrs using propidium iodide staining by flow cytometry (reference value: 33.03 %); assay type: functional
MGC-803 [35] = test: Antiproliferative activity against human MGC803 cells after 48 hrs by MTT assay; assay type: functional, cell-based; conditions: MGC-803, 48 h
MCF7 [36] = test: Induction of apoptosis in human MCF7 cells assessed as early apoptotic cells at 4 uM after 8 hrs using Annexin V/PI double staining by flow cytometry (reference value: 8.2 %); assay type: functional
MCF7 [37] = test: Cell cycle arrest in human MCF7 cells assessed as accumulation at S phase at 8 uM after 16 hrs using propidium iodide staining by flow cytometry (reference value: 30.05 %); assay type: functional

SMILES: CCCCCCCCCCCCCCCCCCn1cc(COC[C@@H]2OC[C@H](N)[C@H]2O)nn1
- Activity (MCF7 [1]): 1.4%
- IC50 (MCF7 [2]): 1930 nM
- viability at 8 µM (MCF7 [3]): 56.3%
- Activity (MCF7 [4]): 0.5%
- Activity (MCF7 [5]): 48.63%
- Activity (MCF7 [6]): 4.9%
- Activity (MCF7 [7]): 42.05%
- IC50 [8]: 2290 nM
- Activity (MCF7 [9]): 42.27%
- Activity (MCF7 [10]): 39.13%
- Activity (MCF7 [11]): 31.4%
- Activity (MCF7 [12]): 57.9%
- viability at 4 µM (MCF7 [13]): 71.5%
- viability at 4 µM (MCF7 [14]): 38.2%
- Activity (MCF7 [15]): 27.97%
- Activity (MCF7 [16]): 28.6%
- viability at 8 µM (MCF7 [17]): 24%
- Activity (MCF7 [18]): 12.5%
- Activity (MCF7 [19]): 25.7%
- Activity (MCF7 [20]): 5.2%
- Activity (MCF7 [21]): 33.13%
- Ratio IC50 (MCF7 [22]): 2
- Activity (MCF7 [23]): 18.6%
- Activity (MCF7 [24]): 14.1%
- Activity (MCF7 [25]): 19.11%
- Activity (MCF7 [26]): 5.9%
- Ratio IC50 (MGC-803 [27]): 2
- Activity (MCF7 [28]): 30.72%
- Activity (MCF7 [29]): 23.8%
- Activity (MCF7 [30]): 20.04%
- viability at 2 µM (MCF7 [31]): 81%
- Activity (MCF7 [32]): 45%
- Activity (MCF7 [33]): 17.16%
- Activity (MCF7 [34]): 36.69%
- IC50 (MGC-803 [35]): 3110 nM
- Activity (MCF7 [36]): 13.9%
- Activity (MCF7 [37]): 23.53%
